Strand notation (5' to 3'): a small letter for the sugar, then the base; units joined by * are phosphorothioate-linked, units joined directly phosphodiester-linked; [ ] holds rarer units or linkages, { } end groups; capitals alone tell only the bases. k = constrained ethyl (cEt); [5mC] = 5-methylcytosine; d = 2'-deoxy (DNA); m = 2'-O-methyl

In the first data set the test system is Yap1 mRNA. In words: Antisense inhibition of human Yap1 in SNU-449 cells by modified oligonucleotides, single dose (Example 5, RTS36584). Type of data set: cell-based. To be noted: Table 51; Yap1 mRNA remaining as percent of untreated control (UT), SNU-449 cells, single dose. An outline of the steps: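 Each modified oligonucleotide is applied by free uptake to SNU-449 cultures at 2,000 nM, and total RNA is harvested around 48 h later. Yap1 transcript, quantified with the RTS36584 set and corrected for RIBOGREEN RNA content, is given as % UTC. Asterisks mark sequences overlapping the amplicon.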
As to “1200793 (kA*kG*kT*dA*dT*mG*dT*dG*dG*d[5mC]*dA*dA*dT*kA*kA*kT; antisense) [Compound 1200793]”, the “YAP1 (% UT)” value came out at 31 % UT.

Take “1200794 (kA*kG*kA*dG*dT*mA*dT*dG*dT*dG*dG*d[5mC]*dA*kA*kT*kA; antisense) [Compound 1200794]”: the “YAP1 (% UT)” value is 18 % UT.

Turning to “1200795 (kT*kA*kG*dA*dG*mU*dA*dT*dG*dT*dG*dG*d[5mC]*kA*kA*kT; antisense) [Compound 1200795]”, the “YAP1 (% UT)” value was 30 % UT.

Regarding “1200796 (kT*kT*kA*dG*dA*mG*dT*dA*dT*dG*dT*dG*dG*k[5mC]*kA*kA; antisense) [Compound 1200796]”, the “YAP1 (% UT)” value amounted to 15 % UT.

“1200797 (kA*kT*kT*dA*dG*mA*dG*dT*dA*dT*dG*dT*dG*kG*k[5mC]*kA; antisense) [Compound 1200797]”: the “YAP1 (% UT)” value was 11 % UT.

Consider “1200798 (kT*kA*kT*dT*dA*mG*dA*dG*dT*dA*dT*dG*dT*kG*kG*k[5mC]; antisense) [Compound 1200798]”, for which the “YAP1 (% UT)” value is 7 % UT.

Take “1200799 (kA*kT*kA*dT*dT*mA*dG*dA*dG*dT*dA*dT*dG*kT*kG*kG; antisense) [Compound 1200799]”: the “YAP1 (% UT)” value was found to be 27 % UT.

“1200800 (T_{ks}A_{ks}T_{ks}A_{ds}T_{ds}U_{ys}A_{ds}G_{ds}A_{ds}G_{ds}T_{ds}A_{ds}T_{ds}G_{ks}T_{ks}G_{k}; antisense; as printed in the source, key not given here) [Compound 1200800]”: the “YAP1 (% UT)” value amounted to 61 % UT.

For “1200801 (kT*k[5mC]*kT*dA*dT*mA*dT*dT*dA*dG*dA*dG*dT*kA*kT*kG; antisense) [Compound 1200801]”, the “YAP1 (% UT)” value is 77 % UT.

Still in this data set, the particulars now being: Table 52; Yap1 mRNA, modified oligonucleotides targeting SEQ ID NO: 1 and 2.
For “1200788 (kG*kA*kA*dA*dT*mU*dG*dT*d[5mC]*dT*d[5mC]*dA*dT*kG*k[5mC]*k[5mC]; antisense) [Compound 1200788]”, the “YAP1 (% UT)” value is given as 19 % UT.

“1200789 (G_{ks}G_{ks}A_{ks}A_{ds}A_{ds}U_{ys}T_{ds}G_{ds}T_{ds}^{m}C_{ds}T_{ds}^{m}C_{ds}A_{ds}T_{ks}G_{ks}^{m}C_{k}; antisense; as printed in the source, key not given here) [Compound 1200789]”: the “YAP1 (% UT)” value was 12 % UT.

As to “1200790 (kT*kG*kG*dA*dA*mA*dT*dT*dG*dT*d[5mC]*dT*d[5mC]*kA*kT*kG; antisense) [Compound 1200790]”, the “YAP1 (% UT)” value was 33 % UT.

In the case of “1200791 (kA*kT*kG*dG*dA*mA*dA*dT*dT*dG*dT*d[5mC]*dT*k[5mC]*kA*kT; antisense) [Compound 1200791]”, the “YAP1 (% UT)” value turned out to be 46 % UT.

As to “1200792 (kA*kT*kA*dT*dG*mG*dA*dA*dA*dT*dT*dG*dT*k[5mC]*kT*k[5mC]; antisense) [Compound 1200792]”, the “YAP1 (% UT)” value amounted to 52 % UT.

As to “1200802 (TATAACTGGGCAAATT; cEt gapmer, phosphorothioate, 5-methylcytosine, chemistry not fully specified) [Compound 1200802]”, the “YAP1 (% UT)” value came to 89 % UT.

As for “1200803 (kG*kG*kT*dA*dT*mA*dA*d[5mC]*dT*dG*dG*dG*d[5mC]*kA*kA*kA; antisense) [Compound 1200803]”, the “YAP1 (% UT)” value was 22 % UT.

Regarding “1200804 (kA*kG*kG*dT*dA*mU*dA*dA*d[5mC]*dT*dG*dG*dG*k[5mC]*kA*kA; antisense) [Compound 1200804]”, the “YAP1 (% UT)” value is 44 % UT.

As for “1200805 (kG*kA*kG*dG*dT*mA*dT*dA*dA*d[5mC]*dT*dG*dG*kG*k[5mC]*kA; antisense) [Compound 1200805]”, the “YAP1 (% UT)” value is reported as 50 % UT.

For the substance “1200806 (kT*kG*kA*dG*dG*mU*dA*dT*dA*dA*d[5mC]*dT*dG*kG*kG*k[5mC]; antisense) [Compound 1200806]”, the “YAP1 (% UT)” value is reported as 24 % UT.

For the substance “1200807 (k[5mC]*kT*kG*dA*dG*mG*dT*dA*dT*dA*dA*d[5mC]*dT*kG*kG*kG; antisense) [Compound 1200807]”, the “YAP1 (% UT)” value worked out at 69 % UT.

Turning to “1200808 (kA*k[5mC]*kT*dG*dA*mG*dG*dT*dA*dT*dA*dA*d[5mC]*kT*kG*kG; antisense) [Compound 1200808]”, the “YAP1 (% UT)” value came to 45 % UT.

With “1200809 (k[5mC]*kA*k[5mC]*dT*dG*mA*dG*dG*dT*dA*dT*dA*dA*k[5mC]*kT*kG; antisense) [Compound 1200809]”, the “YAP1 (% UT)” value worked out at 69 % UT.

Turning to “1200810 (kA*kA*k[5mC]*dA*d[5mC]*mU*dG*dA*dG*dG*dT*dA*dT*kA*kA*k[5mC]; antisense) [Compound 1200810]”, the “YAP1 (% UT)” value was 94 % UT.

On to “1200811 (kT*kT*kA*d[5mC]*dA*mU*dT*dA*dG*dG*dA*dA*d[5mC]*kA*kA*kG; antisense) [Compound 1200811]”, for which the “YAP1 (% UT)” value stood at 62 % UT.

For the substance “1200813 (k[5mC]*kT*kT*dT*dT*mA*d[5mC]*dA*dT*dT*dA*dG*dG*kA*kA*k[5mC]; antisense) [Compound 1200813]”, the “YAP1 (% UT)” value was found to be 58 % UT.

On to “1200814 (kA*k[5mC]*kT*dT*dT*mU*dA*d[5mC]*dA*dT*dT*dA*dG*kG*kA*kA; antisense) [Compound 1200814]”, for which the “YAP1 (% UT)” value was determined as 73 % UT.

For “1200815 (k[5mC]*kA*k[5mC]*dT*dT*mU*dT*dA*d[5mC]*dA*dT*dT*dA*kG*kG*kA; antisense) [Compound 1200815]”, the “YAP1 (% UT)” value is 55 % UT.

In the case of “1200816 (kG*k[5mC]*kA*d[5mC]*dT*mU*dT*dT*dA*d[5mC]*dA*dT*dT*kA*kG*kG; antisense) [Compound 1200816]”, the “YAP1 (% UT)” value is 37 % UT.

Turning to “1200817 (kA*kG*k[5mC]*dA*d[5mC]*mU*dT*dT*dT*dA*d[5mC]*dA*dT*kT*kA*kG; antisense) [Compound 1200817]”, the “YAP1 (% UT)” value was 38 % UT.

With “1200818 (kA*kA*kG*d[5mC]*dA*mC*dT*dT*dT*dT*dA*d[5mC]*dA*kT*kT*kA; antisense) [Compound 1200818]”, the “YAP1 (% UT)” value is listed as 31 % UT.

Take “1200819 (kT*kT*kA*dA*dG*mC*dA*d[5mC]*dT*dT*dT*dT*dA*k[5mC]*kA*kT; antisense) [Compound 1200819]”: the “YAP1 (% UT)” value is on record as 101 % UT.

In the case of “1200820 (kG*kG*kA*dA*dG*mA*dT*d[5mC]*dT*dG*dA*dA*dA*k[5mC]*kT*k[5mC]; antisense) [Compound 1200820]”, the “YAP1 (% UT)” value is on record as 24 % UT.

Take “1200821 (kT*kT*kG*dG*dA*mA*dG*dA*dT*d[5mC]*dT*dG*dA*kA*kA*k[5mC]; antisense) [Compound 1200821]”: the “YAP1 (% UT)” value turned out to be 59 % UT.

Regarding “1200823 (k[5mC]*kT*kT*dT*dG*mG*dA*dA*dG*dA*dT*d[5mC]*dT*kG*kA*kA; antisense) [Compound 1200823]”, the “YAP1 (% UT)” value stood at 46 % UT.

For the substance “1200824 (kG*k[5mC]*kT*dT*dT*mG*dG*dA*dA*dG*dA*dT*d[5mC]*kT*kG*kA; antisense) [Compound 1200824]”, the “YAP1 (% UT)” value stood at 43 % UT.

Turning to “1200825 (kT*kG*k[5mC]*dT*dT*mU*dG*dG*dA*dA*dG*dA*dT*k[5mC]*kT*kG; antisense) [Compound 1200825]”, the “YAP1 (% UT)” value came to 39 % UT.

With “1200826 (kG*kT*kG*d[5mC]*dT*mU*dT*dG*dG*dA*dA*dG*dA*kT*k[5mC]*kT; antisense) [Compound 1200826]”, the “YAP1 (% UT)” value came out at 26 % UT.

“1200827 (kA*kG*kT*dG*d[5mC]*mU*dT*dT*dG*dG*dA*dA*dG*kA*kT*k[5mC]) [Compound 1200827]”: the “YAP1 (% UT)” value is reported as 67 % UT.

For “1200828 (kA*kT*kA*dG*dT*mG*d[5mC]*dT*dT*dT*dG*dG*dA*kA*kG*kA; antisense) [Compound 1200828]”, the “YAP1 (% UT)” value was 54 % UT.

Consider “1200829 (kA*kG*kG*dA*dT*mG*d[5mC]*dA*dT*dG*dG*dT*dT*kT*kT*kT; antisense) [Compound 1200829]”, for which the “YAP1 (% UT)” value was found to be 49 % UT.

“1200830 (kT*kT*kA*dG*dG*mA*dT*dG*d[5mC]*dA*dT*dG*dG*kT*kT*kT; antisense) [Compound 1200830]”: the “YAP1 (% UT)” value is 50 % UT.

Consider “1200831 (kT*kT*kT*dA*dG*mG*dA*dT*dG*d[5mC]*dA*dT*dG*kG*kT*kT; antisense) [Compound 1200831]”, for which the “YAP1 (% UT)” value worked out at 42 % UT.

“1200832 (kA*kT*kT*dT*dA*mG*dG*dA*dT*dG*d[5mC]*dA*dT*kG*kG*kT; antisense) [Compound 1200832]”: the “YAP1 (% UT)” value was 61 % UT.

Regarding “1200833 (kG*kA*kT*dT*dT*mA*dG*dG*dA*dT*dG*d[5mC]*dA*kT*kG*kG; antisense) [Compound 1200833]”, the “YAP1 (% UT)” value worked out at 31 % UT.

“1200834 (kA*kG*kA*dT*dT*mU*dA*dG*dG*dA*dT*dG*d[5mC]*kA*kT*kG; antisense) [Compound 1200834]”: the “YAP1 (% UT)” value is 37 % UT.

In the case of “1200835 (k[5mC]*kA*kG*dA*dT*mU*dT*dA*dG*dG*dA*dT*dG*k[5mC]*kA*kT; antisense) [Compound 1200835]”, the “YAP1 (% UT)” value came out at 82 % UT.

Take “1200836 (kT*k[5mC]*kA*dG*dA*mU*dT*dT*dA*dG*dG*dA*dT*kG*k[5mC]*kA; antisense) [Compound 1200836]”: the “YAP1 (% UT)” value worked out at 72 % UT.

“1200837 (kA*kT*kT*d[5mC]*dA*mG*dA*dT*dT*dT*dA*dG*dG*kA*kT*kG; antisense) [Compound 1200837]”: the “YAP1 (% UT)” value is 82 % UT.

For “1200838 (kA*kT*kA*dT*dG*mG*dT*dT*dT*dT*dG*dT*dG*kT*kG*kT; antisense) [Compound 1200838]”, the “YAP1 (% UT)” value came out at 65 % UT.

For “1200839 (kT*kT*kA*dT*dA*mU*dG*dG*dT*dT*dT*dT*dG*kT*kG*kT; antisense) [Compound 1200839]”, the “YAP1 (% UT)” value is recorded as 44 % UT.

In the case of “1200840 (k[5mC]*kT*kT*dA*dT*mA*dT*dG*dG*dT*dT*dT*dT*kG*kT*kG; antisense) [Compound 1200840]”, the “YAP1 (% UT)” value is given as 48 % UT.

Source of the values: US11214803B2, “Modulators of YAP1 expression” (Ionis Pharmaceuticals, Inc., priority 2019, dated 2022).
